The source of these data is ChEMBL document CHEMBL1909294, “Translating clinical findings into knowledge in drug safety evaluation--drug induced liver injury prediction system (DILIps)” (PLoS Comput Biol, 2011).

Data set [1] has as its system Hepatotoxicity.
In data set [2] the test system is Hepatotoxicity. The source holds these as a separate data set.
Data set [3] has as its system Hepatotoxicity. This is another data set of the same source.
In data set [4] the test system is Hepatotoxicity. This is another data set of the same source.
Data set [5] concerns Hepatotoxicity. The source holds these as a separate data set.
The test system of data set [6] is Hepatotoxicity. The source holds these as a separate data set.
For data set [7], the system named is Hepatotoxicity. The source holds these as a separate data set.
For data set [8], the system named is Hepatotoxicity. The source holds these as a separate data set.
Data set [9] has as its system Hepatotoxicity. The source holds these as a separate data set.
In data set [10] the test system is Hepatotoxicity. This is another data set of the same source.
Data set [11] has as its system Hepatotoxicity. The source holds these as a separate data set.
In data set [12] the test system is Hepatotoxicity. This is another data set of the same source.
The test system of data set [13] is Hepatotoxicity. This is another data set of the same source.
Data set [14] concerns Hepatotoxicity. This is another data set of the same source.
Data set [15] relates to Hepatotoxicity. The source holds these as a separate data set.
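Throughout, for DILI positive/negative: binary label assigned from drug-induced liver injury observed in pharmaceutical company records, forming the validation set for the DILIps prediction system.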
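Throughout, for HepSE Combined Scores: combined hepatic side effect score as listed in the training data of the Drug Induced Liver Injury Prediction System (DILIps).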
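Throughout, for HepSE bilirubinemia: bilirubinemia hepatic side effect score drawn from the DILIps training data, a prediction system for drug-induced liver injury; call rule not given here.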
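Throughout, for HepSE cholecystitis: Cholecystitis-related hepatic side effect score drawn from the DILIps (drug-induced liver injury prediction) training data set; call rule not given here.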
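Throughout, for HepSE cholelithiasis: hepatic side effect score for cholelithiasis, drawn from the DILIps training data for predicting drug-induced liver injury; call rule not given here.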
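Throughout, for HepSE cirrhosis: cirrhosis hepatic side effect score taken from the DILIps (drug-induced liver injury prediction) training set; call rule not given here.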
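Throughout, for HepSE elevated liver function tests: hepatic side effect score for raised liver function tests, as recorded in the DILIps training set used for predicting drug-induced liver injury.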
Throughout, for HepSE hepatic failure: call rule not given here.
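Throughout, for HepSE hepatic necrosis: score of hepatic side effects for hepatic necrosis, drawn from the training data of DILIps, a prediction system for drug-induced liver injury; call rule not given here.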
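Throughout, for HepSE hepatitis: Hepatitis-related hepatic side effect score taken from the training data of DILIps, a prediction system for drug-induced liver injury; call rule not given here.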
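Throughout, for HepSE hepatomegaly: hepatic side effect score for hepatomegaly, taken from the training set of the DILIps drug-induced liver injury prediction system; call rule not given here.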
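Throughout, for HepSE jaundice: Jaundice-related hepatic side-effect score drawn from the training data of the DILIps (drug-induced liver injury prediction system); call rule not given here.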
Throughout, for HepSE liver disease: call rule not given here.
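Throughout, for HepSE liver fatty: hepatic side effect score for fatty liver, taken from the DILIps training set for predicting drug-induced liver injury; call rule not given here.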
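Throughout, for HepSE liver function tests abnormal: hepatic side effect score taken from the DILIps (drug-induced liver injury prediction system) training data, here covering abnormal liver function test findings.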

`CN1CCC(=C2c3ccccc3CCc3cccnc32)CC1.O=C(O)/C=C\C(=O)O.O=C(O)/C=C\C(=O)O` [AZATADINE MALEATE]: the DILI positive/negative in the data set with Hepatotoxicity [1] was determined as 1.
Still for that read-out and setting: the value for `COc1cc(C(=O)NCc2ccc(OCCN(C)C)cc2)cc(OC)c1OC.Cl` [TRIMETHOBENZAMIDE HYDROCHLORIDE] was 1.
Still for that read-out and setting: the value for `CC[C@]1(O)C[C@@H]2CN(CCc3c([nH]c4ccccc34)[C@@](C(=O)OC)(c3cc4c(cc3OC)N(C)[C@H]3[C@@](O)(C(=O)OC)[C@H](OC(C)=O)[C@]5(CC)C=CCN6CC[C@]43[C@@H]65)C2)C1.O=S(=O)(O)O` [VINBLASTINE SULFATE] was 0; that for AUROTHIOGLUCOSE was 1.
Same read-out and setting: the value for `S=C=Nc1cccc2ccccc12` [1-NAPHTHYLISOTHIOCYANATE] was 1.
`C[C@]12CC[C@@H]3c4ccc(O)cc4CC[C@H]3[C@@H]1CCC2=O` [ESTRONE] had a DILI positive/negative in the data set with Hepatotoxicity [1] of 1.
The same measure, in the same setting: the value for `C#C[C@]1(O)CC[C@H]2[C@@H]3CCc4cc(OC)ccc4[C@H]3CC[C@@]21C` [MESTRANOL] was 1; that for `CC(=O)CC(c1ccc([N+](=O)[O-])cc1)c1c(O)c2ccccc2oc1=O` (centres undefined) [ACENOCOUMAROL] was 1; that for `CC(C)COCC(CN(Cc1ccccc1)c1ccccc1)N1CCCC1.Cl.O` (centres undefined) [BEPRIDIL HYDROCHLORIDE] was 1.
`C=C1[C@@H]2CCC3[C@@](CC[C@@H]4[C@H](C(=O)O)C[C@@H](O[C@@H]5O[C@H](CO)[C@@H](OS(=O)(=O)[O-])[C@H](OS(=O)(=O)[O-])[C@H]5OC(=O)CC(C)C)C[C@@]34C)(C2)[C@@H]1O.[K+].[K+]` (some centres undefined) [ATRACTYLOSIDE]: in the data set on Hepatotoxicity [1], the DILI positive/negative was determined as 1.
Same read-out and setting: the value for `CN(C)[C@@H]1C(O)=C(C(N)=O)C(=O)[C@@]2(O)C(O)=C3C(=O)c4c(O)ccc(Cl)c4[C@@](C)(O)[C@H]3C[C@@H]12.Cl` [CHLORTETRACYCLINE HYDROCHLORIDE] was 1.
In the data set on Hepatotoxicity [1] (Liver), `Cl.Cl.OCCN1CCN(CC/C=C2/c3ccccc3Sc3ccc(C(F)(F)F)cc32)CC1` displayed a DILI positive/negative of 0.
`O=C(O)c1ccncc1` [ISONICOTINIC ACID] showed a DILI positive/negative in the data set on Hepatotoxicity [1] of 0.
The same measure, in the same setting: next, `CCO[C@@H](Cc1ccc(OCCN2c3ccccc3Oc3ccccc32)cc1)C(=O)O` [RAGAGLITAZAR]: 0.
Still for that read-out and setting: the value for `CCC1(c2ccccc2)CCC(=O)NC1=O` (centres undefined) [GLUTETHIMIDE] was 1; that for `CC1(C)S[C@@H]2[C@H](NC(=O)[C@H](NC(=O)N3CCNC3=O)c3ccccc3)C(=O)N2[C@H]1C(=O)[O-].[Na+]` [AZLOCILLIN SODIUM] was 0.
Still for that read-out and setting: next, `N[C@H](C(=O)O)[C@@H]1CC(Cl)=NO1` [ACIVICIN]: 0; `Cc1cc(CC(=O)O)n(C)c1C(=O)c1ccc(Cl)cc1` [ZOMEPIRAC]: 0; `COC(=O)Nc1nc2ccc(C(=O)c3cccs3)cc2[nH]1` [NOCODAZOLE]: 0.
Regarding `Br.COc1ccc2c(c1)[C@]13CCCC[C@@H]1[C@H](C2)N(C)CC3.O` [DEXTROMETHORPHAN HYDROBROMIDE], the DILI positive/negative in the data set on Hepatotoxicity [1] is recorded as 0.
In the data set on Hepatotoxicity [2], `CC(=O)S[C@@H]1CC2=CC(=O)CC[C@]2(C)[C@H]2CC[C@@]3(C)[C@@H](CC[C@@]34CCC(=O)O4)[C@H]12` [SPIRONOLACTONE] showed a HepSE_hepatomegaly of 0. Besides, the “HepSE_elevated liver function tests” value in the data set with Hepatotoxicity [3] came out at 0. The HepSE_jaundice with Hepatotoxicity [4] turned out to be 0. The HepSE_hepatic necrosis in the data set on Hepatotoxicity [5] turned out to be 0. In addition, the HepSE_cirrhosis in the data set on Hepatotoxicity [6] was found to be 0. In addition, the HepSE_liver disease in the data set on Hepatotoxicity [7] is 0. Further, the HepSE_bilirubinemia in the data set with Hepatotoxicity [8] was 0. In the data set with Hepatotoxicity [9], this compound returned a HepSE_hepatic failure of 0. Moreover, the HepSE_hepatitis in the data set on Hepatotoxicity [10] was 0. Moreover, in the data set with Hepatotoxicity [11], the “HepSE_Combined Scores” value came out at 0. Also, the “HepSE_liver function tests abnormal” value with Hepatotoxicity [12] is given as 0. This compound gave a HepSE_cholecystitis with Hepatotoxicity [13] of 0. Besides, the HepSE_cholelithiasis in the data set on Hepatotoxicity [14] stood at 0. The same compound came in with a HepSE_liver fatty with Hepatotoxicity [15] of 0.
